Source: US20110065762A1, “METHODS OF USE OF ANTIVIRAL COMPOUNDS” (priority 2009, published 2011)

target: T1, M2(S31) (Influenza A virus, UniProt P0DOF5); assay: Cell-free electrophysiology of M2 proton channels on solid supported membranes (IonGate SURFE2R screen); assay type: biochemical; settings: 25 μM inhibitor, activation by pH jump 7.0 to 6.0, % inhibition=100×(1−I/Io), 25 µM
T1 construct: expressed in transfected cells; host or cells: CHO cells (membrane preparation adsorbed to SSM sensors)
T1 sequence (P0DOF5 whole entry): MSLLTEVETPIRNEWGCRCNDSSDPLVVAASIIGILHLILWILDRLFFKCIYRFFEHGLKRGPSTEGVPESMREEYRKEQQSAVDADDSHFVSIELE

Structure (SMILES)	IonGate_M2(S31)_Screen % Inhibition at 25 μM
N#CC1C2CC3CC1CC(O)(C3)C2 (stereo not drawn) [Example 8]	B (11-50% (B))
N#CC1C2CC3CC1CC(O)(C3)C2 (stereo not drawn) [Example 9]	C (1-10% (C))
N=C(N)NC1C2CC3CC1CC(Cl)(C3)C2 (stereo not drawn) [Example 24]	A (51-95% (A))
N=C(N)NC1C2CC3CC1CC(Cl)(C3)C2 (stereo not drawn) [Example 23]	B (11-50% (B))

same assay, conditions: 25 μM inhibitor, activation by pH jump 7.0 to 6.0, % inhibition=100×(1−I/Io), read-out: IonGate_M2(S31)_Screen % Inhibition at 25 μM

Structure (SMILES)	inhibition at 25 µM
NC1CC2CC3CC1CC(O)(C2)C3 (stereo not drawn) [Example 33]	11 to 50%
OCCNC1C2CC3CC(C2)CC1C3 (stereo not drawn) [Example 2]	51 to 95%
NCC1(O)C2CC3CC(C2)CC1C3 (stereo not drawn) [Example 1]	51 to 95%
NCC1C2CC3CC1CC(O)(C3)C2 (stereo not drawn) [Example 5]	11 to 50%
O=C1CC2CC3CC1CC(O)(C2)C3 (stereo not drawn) [Example 31]	11 to 50%
O/N=C1\CC2CC3CC1CC(Cl)(C2)C3 (stereo not drawn) [Example 38]	11 to 50%
NC1C2CC3CC(C2)CC(C3)C1N (stereo not drawn) [Example 30]	51 to 95%
NC1C2CC3CC1CC(O)(C3)C2 (stereo not drawn) [Example 3]	11 to 50%
O=C1C(=O)C2CC3CC(CC1C3)C2 [Example 28]	11 to 50%
O=C1CC2CC3CC1CC(Cl)(C2)C3 (stereo not drawn) [Example 37]	11 to 50%
OC1C2CC3CC(CC(Cl)(C3)C2)C1O (stereo not drawn) [Example 41]	1 to 10%
O/N=C1\CC2CC3CC1CC(O)(C2)C3 (stereo not drawn) [Example 32]	11 to 50%
OC12CC3CC(C1)C1NC1C(C3)C2 (stereo not drawn) [Example 34]	11 to 50%
C1C2CC3CC1CC(C2)C1NC31 (stereo not drawn) [Example 27]	11 to 50%
O/N=C1\C(=N\O)C2CC3CC(CC1C3)C2 [Example 29]	11 to 50%
O=[N+]([O-])C1C2CC3CC1CC(Cl)(C3)C2 (stereo not drawn) [Example 18]	1 to 10%
N#CC1C2CC3CC1CC(Cl)(C3)C2 (stereo not drawn) [Example 12]	11 to 50%
ON=C1C(=NO)C2CC3CC1CC(Cl)(C3)C2 [Example 42]	11 to 50%

Structure (SMILES)	inhibition at 25 µM
NC1C2CC3CC(CC(Cl)(C3)C2)C1N (stereo not drawn) [Example 43]	1 to 10%
N=C(N)C1C2CC3CC(C2)CC1C3 (stereo not drawn) [Example 11]	51 to 95%
NCC1(O)C2CC3CC1CC(O)(C3)C2 (stereo not drawn) [Example 6]	11 to 50%
COC12CC3CC(C1)C(C#N)C(C3)C2 (stereo not drawn) [Example 44]	1 to 10%
NC1C2CC3CC(C2)CC1C3 (stereo not drawn) [Example 26]	11 to 50%
OC1C2CC3CC(CC(O)(C3)C2)C1O (stereo not drawn) [Example 36]	1 to 10%
NC1CC2CC3CC1CC(Cl)(C2)C3 (stereo not drawn) [Example 39]	11 to 50%
O=C1C(=O)C2CC3CC1CC(O)(C3)C2 [Example 35]	1 to 10%
O=C1C(=O)C2CC3CC1CC(Cl)(C3)C2 [Example 40]	1 to 10%
NC1C2CC3CC(C2)CC1(O)C3 (stereo not drawn) [Example 19]	51 to 95%
O=[N+]([O-])C1C2CC3CC(C2)CC1(O)C3 (stereo not drawn) [Example 20]	11 to 50%
N#CC1C2CC3CC(C2)CC1C3 (stereo not drawn) [Example 16]	51 to 95%
NC1C2CC3CC1CC(Cl)(C3)C2 (stereo not drawn) [Example 15]	51 to 95%
OC12CC3CC(C1)C(n1ccnc1)C(C3)C2 (stereo not drawn) [Example 4, 4-imidazol-1-yladamantan-1-ol]	11 to 50%
C1NC2C3CC4CC(C3)CC2(C4)O1 (stereo not drawn) [Example 21]	51 to 95%
NC1C2CC3CC1CC(S)(C3)C2 (stereo not drawn) [Example 22]	51 to 95%
N=C(N)C1C2CC3CC1CC(Cl)(C3)C2 (stereo not drawn) [Example 14]	51 to 95%
